Data as given in patent publication US9540388B2, “P2X7 modulators” (Janssen Pharmaceutica NV, priority 2013, dated 2017).

What was measured:
rat P2X7 [1] = molecular target: T1, rat P2X7 (Rattus norvegicus (Rat), UniProt Q64663); assay: Ca2+ flux (FLIPR) in 1321N1 cells expressing recombinant rat P2X7; format: cell-based; conditions: Table 2, additional runs; 250 μM BzATP
Experimental: (§1) P2X7 Antagonism in Recombinant Human P2X7 Cells or Recombinant Rat P2X7 Cells: (a) Ca^2+ Flux and (b) Radioligand Binding
(§2) 1321N1 cells expressing the recombinant human or rat P2X7 channel was cultured in HyQ DME/(HyClone/Dulbecco's Modified Eagle Medium) high glucose supplemented with 10% Fetal Bovine Serum (FBS) and appropriate selection marker. Cells were seeded at a density of 25000 cells/well (96-well clear bottom black walled plates) in 100 μl volume/well. On the day of the experiment, cell plates were washed with assay buffer, containing (in mM): 130 NaCl, 2 KCl, 1 CaCl2, 1 MgCl2, 10 HEPES, 5 glucose; pH 7.40 and 300 mOs. After the wash, cells were loaded with the Calcium-4 dye (Molecular Device) and incubated in the dark for 60 minutes. Test compounds were prepared at 250× the test concentration in neat DMSO. Intermediate 96-well compound plates were prepared by transferring 1.2 μL of the compound into 300 μL of assay buffer. A further 3× dilution occurred when transferring 50 μL/well of the compound plate to 100 μL/well in the cell plate. Cells were incubated with test compounds and dye for 30 minutes. […] The fluorescence change was measured 180 seconds after adding the agonist.

rat P2X7 [2] = molecular target: T1, rat P2X7; assay: Radioligand binding, recombinant rat P2X7-1321N1 cell membranes, tritiated A-804598; conditions: Table 2, additional runs
Experimental: as §1
(§3) human or rat P2X7-1321N1 cells were collected and frozen @−80° C. On the day of the experiment, cell membrane preparations were made according to standard published methods. […] The compound can be prepared as described in the literature. […] The assay was terminated by filtration (GF/B filters pre-soaked with 0.3% PEI) and washed with washing buffer (Tris-HCl 50 mM). The IC50 generated in the binding assay was corrected for tracer concentration and affinity of the tracer to derive at the affinity (Ki) of the test compounds. […] Data are analyzed and graphed on Graphpad Prism 5.

P2X7 [3] = molecular target: T2, P2X7 (Homo sapiens (Human), UniProt Q99572); assay: Ca2+ flux (FLIPR) in 1321N1 cells expressing recombinant human P2X7; format: cell-based; conditions: Table 2, additional runs; 250 μM BzATP
T2 sequence (Q99572 whole entry): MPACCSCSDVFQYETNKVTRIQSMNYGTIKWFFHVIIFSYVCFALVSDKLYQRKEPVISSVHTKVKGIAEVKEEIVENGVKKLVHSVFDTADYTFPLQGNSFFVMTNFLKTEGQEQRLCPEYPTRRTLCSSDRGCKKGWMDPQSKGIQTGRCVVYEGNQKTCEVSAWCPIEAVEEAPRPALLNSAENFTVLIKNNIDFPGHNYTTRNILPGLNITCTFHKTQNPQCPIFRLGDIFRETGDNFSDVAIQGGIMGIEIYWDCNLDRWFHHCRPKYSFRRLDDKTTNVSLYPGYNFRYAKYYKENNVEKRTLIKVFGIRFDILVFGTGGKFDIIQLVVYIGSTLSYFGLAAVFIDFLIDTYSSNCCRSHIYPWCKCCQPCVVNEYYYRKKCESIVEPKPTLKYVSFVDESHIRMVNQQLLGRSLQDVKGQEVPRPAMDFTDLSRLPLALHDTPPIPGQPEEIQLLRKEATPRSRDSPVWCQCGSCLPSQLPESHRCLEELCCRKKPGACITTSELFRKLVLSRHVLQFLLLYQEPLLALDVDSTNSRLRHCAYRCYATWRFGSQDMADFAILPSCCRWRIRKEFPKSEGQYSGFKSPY
Experimental: as §1, §2

P2X7 [4] = molecular target: T2, P2X7; assay: Radioligand binding, recombinant human P2X7-1321N1 cell membranes, tritiated A-804598; conditions: Table 2, additional runs
Experimental: as §1, §3

T1 sequence (Q64663 whole entry): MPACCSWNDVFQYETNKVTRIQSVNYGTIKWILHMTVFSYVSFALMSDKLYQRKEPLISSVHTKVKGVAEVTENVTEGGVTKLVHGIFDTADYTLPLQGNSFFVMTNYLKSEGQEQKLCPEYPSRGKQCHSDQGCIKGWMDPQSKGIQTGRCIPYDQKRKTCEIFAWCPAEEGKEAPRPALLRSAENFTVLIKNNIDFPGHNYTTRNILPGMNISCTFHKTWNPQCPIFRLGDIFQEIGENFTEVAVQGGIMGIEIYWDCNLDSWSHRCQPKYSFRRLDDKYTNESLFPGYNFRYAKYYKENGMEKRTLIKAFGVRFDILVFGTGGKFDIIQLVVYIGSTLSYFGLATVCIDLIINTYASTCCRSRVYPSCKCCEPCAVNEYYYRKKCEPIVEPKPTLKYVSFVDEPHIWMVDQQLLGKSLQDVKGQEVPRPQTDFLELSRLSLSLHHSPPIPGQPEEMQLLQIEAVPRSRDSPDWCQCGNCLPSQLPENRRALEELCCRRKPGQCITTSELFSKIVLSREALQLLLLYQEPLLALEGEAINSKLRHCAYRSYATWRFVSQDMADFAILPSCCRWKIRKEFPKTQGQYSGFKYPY

Structure (SMILES) | IC50 (rat P2X7 [1]) | Ki (rat P2X7 [2]) | IC50 (P2X7 [3]) | Ki (P2X7 [4])
Cc1nc(-c2nnc3n2C[C@H]2CCC[C@@H]3N2C(=O)c2cccc(C(F)(F)F)c2Cl)ccc1F (stereo in doubt) [Example 193, (6R,10S)-11-{[2-Chloro-3-(trifluoromethyl)phenyl]carbonyl}-3-(5-fluoro-6-methylpyridin-2-yl)-5,6,7,8,9,10-hexahydro-6,10-epimino[1,2,4]triazolo[4,3-a]azocine] | 0.0411 µM | 0.0049 µM | 0.0307 µM | 0.0708 µM
Cc1ccnc(-c2nnc3n2C[C@H]2CCC[C@@H]3N2C(=O)c2cccc(C(F)(F)F)c2Cl)c1 (stereo in doubt) [Example 194, (6R,10S)-11-{[2-Chloro-3-(trifluoromethyl)phenyl]carbonyl}-3-(4-methylpyridin-2-yl)-5,6,7,8,9,10-hexahydro-6,10-epimino[1,2,4]triazolo[4,3-a]azocine] | 0.0074 µM | 0.0031 µM | 0.0173 µM | 0.0141 µM
O=C(c1cccc(C(F)(F)F)c1Cl)N1[C@@H]2CCC[C@H]1c1nnc(-c3cccnn3)n1C2 (stereo in doubt) [Example 195, (6R,10S)-11-{[2-Chloro-3-(trifluoromethyl)phenyl]carbonyl}-3-pyridazin-3-yl-5,6,7,8,9,10-hexahydro-6,10-epimino[1,2,4]triazolo[4,3-a]azocine] | > 10 µM |  | 0.04 µM | 0.0209 µM
O=C(c1cccc(C(F)(F)F)c1Cl)N1[C@@H]2CCC[C@H]1c1nnc(-c3cc(C(F)(F)F)ccn3)n1C2 (stereo in doubt) [Example 196, (6R,10S)-11-{[2-Chloro-3-(trifluoromethyl)phenyl]carbonyl}-3-[4-(trifluoromethyl)pyridin-2-yl]-5,6,7,8,9,10-hexahydro-6,10-epimino[1,2,4]triazolo[4,3-a]azocine] | 0.0017 µM | 0.0058 µM | 0.0016 µM | 0.0219 µM
O=C(c1cccc(C(F)(F)F)c1Cl)N1[C@@H]2CCC[C@H]1c1nnc(-c3ccncn3)n1C2 (stereo in doubt) [Example 197, (6R,10S)-11-{[2-Chloro-3-(trifluoromethyl)phenyl]carbonyl}-3-pyrimidin-4-yl-5,6,7,8,9,10-hexahydro-6,10-epimino[1,2,4]triazolo[4,3-a]azocine] | 1.49 µM | 0.0631 µM | 0.0107 µM | 0.0191 µM
O=C(c1ccnc(C(F)(F)F)c1F)N1[C@@H]2CCC[C@H]1c1nnc(-c3ccccn3)n1C2 (stereo in doubt) [Example 198, (6R,10S)-11-{[3-Fluoro-2-(trifluoromethyl)pyridin-4-yl]carbonyl}-3-pyridin-2-yl-5,6,7,8,9,10-hexahydro-6,10-epimino[1,2,4]triazolo[4,3-a]azocine] | 0.327 µM | 0.0062 µM | 0.0209 µM | 0.0098 µM
O=C(c1ccnc(C(F)(F)F)c1Cl)N1[C@@H]2CCC[C@H]1c1nnc(-c3ccccn3)n1C2 (stereo in doubt) [Example 199, (6R,10S)-11-{[3-Chloro-2-(trifluoromethyl)pyridin-4-yl]carbonyl}-3-pyridin-2-yl-5,6,7,8,9,10-hexahydro-6,10-epimino[1,2,4]triazolo[4,3-a]azocine] | 0.0127 µM | 0.005 µM | 0.0295 µM | 0.0251 µM
O=C(c1ccc(F)c(C(F)(F)F)c1Cl)N1[C@@H]2CCC[C@H]1c1nnc(-c3ccccn3)n1C2 (stereo in doubt) [Example 200, (6R,10S)-11-{[2-Chloro-4-fluoro-3-(trifluoromethyl)phenyl]carbonyl}-3-pyridin-2-yl-5,6,7,8,9,10-hexahydro-6,10-epimino[1,2,4]triazolo[4,3-a]azocine] | 0.0102 µM | 0.0032 µM | […] | 0.0107 µM
Cc1c(C(=O)N2[C@@H]3CCC[C@H]2c2nnc(-c4ccccn4)n2C3)cccc1C(F)(F)F (stereo in doubt) [Example 201, (6R,10S)-11-{[2-Methyl-3-(trifluoromethyl)phenyl]carbonyl}-3-pyridin-2-yl-5,6,7,8,9,10-hexahydro-6,10-epimino[1,2,4]triazolo[4,3-a]azocine] | 0.726 µM | 0.0032 µM | 0.014 µM | 0.0115 µM
O=C(c1ccc(Cl)c(F)c1Cl)N1[C@@H]2CCC[C@H]1c1nnc(-c3ccccn3)n1C2 (stereo in doubt) [Example 202, (6R,10S)-11-[(2,4-Dichloro-3-fluorophenyl)carbonyl]-3-pyridin-2-yl-5,6,7,8,9,10-hexahydro-6,10-epimino[1,2,4]triazolo[4,3-a]azocine] | 0.462 µM | 0.0058 µM | 0.0176 µM | 0.0039 µM
O=C(c1ccc(F)c(Cl)c1Cl)N1[C@@H]2CCC[C@H]1c1nnc(-c3ccccn3)n1C2 (stereo in doubt) [Example 203, (6R,10S)-11-[(2,3-Dichloro-4-fluorophenyl)carbonyl]-3-pyridin-2-yl-5,6,7,8,9,10-hexahydro-6,10-epimino[1,2,4]triazolo[4,3-a]azocine] | 0.02 µM | 0.0022 µM | 0.0253 µM | 0.0053 µM
